This is an account of results in PubChem BioAssay (NCI).

Holding throughout (assay): growth of human tumour cells (NCI), 48 h
Assay [1] concerns SF-268 CNS.
The subject of assay [2] is UACC-62 melanoma.
For assay [3], the system named is IGROV1 ovarian.
Assay [4] deals with UO-31 renal.
For assay [5], the system named is MALME-3M melanoma.
In assay [6] the test system is TK-10 renal.
The subject of assay [7] is LOX IMVI melanoma.
Assay [8] relates to SK-MEL-5 melanoma.
Assay [9] concerns MCF7 breast.
Assay [10] concerns DU-145 prostate.

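A five-concentration, 48-hour dose response in 96-well plates underlies each endpoint, interpolated linearly between surrounding concentrations. The concentration for 50% growth inhibition is given as GI50. TGI: concentration producing complete growth inhibition.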

`Nc1ccc2c3c(n(CCCCl)c(=O)c2c1)-c1cc2c(cc1C3=O)OCO2`: the GI50 is over 100 µM in [1]; over 100 µM in [2]; 0.177 µM in [3]; 48.1 µM in assay [4]; 7.79 µM in assay [5]; over 100 µM in assay [6]. In addition, the GI50 in [7] was over 100 µM; in [8], 0.12 µM. In addition, the TGI in [1], in assay [2], in [3], in assay [4], in assay [5] and in [6] was over 100 µM each time. Moreover, the TGI in assay [7] was over 100 µM; in assay [8] it was 0.714 µM.

Consider `COc1ccc2c(c1)N=C1CSC(c3cccc(Br)c3)N1C2` (stereo not drawn), for which the TGI is over 100 µM in assay [1]; 25.2 µM in assay [9]; 31.8 µM in assay [2]; 80.7 µM in assay [3]; 30.7 µM in [4]; 43.1 µM in assay [5]. The TGI in [6] stood at 41 µM; in assay [7] it was 50 µM; in [8], 27.6 µM.

As to `Cc1cccc2[s+]snc12`, the TGI in assay [1] is over 100 µM; in assay [2] it was over 100 µM; in assay [3], over 100 µM; in assay [4], over 100 µM; in [5], over 67.3 µM; in assay [6] it was over 100 µM. Also, the TGI in assay [7] and in assay [8] was over 100 µM in each case.

Consider `NC(CCP(=O)(O)CCC1C=CC=CC1)C(=O)O` (stereo not drawn), for which the TGI in assay [1], in [10], in [2], in assay [3], in assay [4] and in [6] was over 100 µM in each case. In addition, the TGI in assay [7] and in assay [8] was over 100 µM throughout.

Consider `CC(C)(C)[Si](C)(C)OCC1CCC(n2cnc3c(N)ncnc32)O1` (stereo not drawn), for which the TGI in assay [10], in [2], in [3], in assay [4], in [6] and in assay [7] was over 100 µM each time. In [8], this compound had a TGI of 34.4 µM.

Regarding `O=[N+]([O-])c1ccc(Nc2nc3ccccc3s2)cc1`, the TGI is 91.7 µM in [1]; over 100 µM in assay [10]; 58.7 µM in assay [2]; 21.2 µM in [3]; 66.5 µM in assay [4]; 46.1 µM in [5]. Moreover, the TGI is 88 µM in assay [6], 38.9 µM in assay [7] and 56.7 µM in assay [8].

On to `NNc1nc2ccccc2s1`, for which the TGI in assay [1], in assay [10], in assay [9], in assay [2], in [3] and in [4] was over 100 µM throughout. In addition, the TGI in [5], in [6], in assay [7] and in assay [8] was over 100 µM in each case.

For `CCOC(=O)/C(C#N)=C1\c2c([nH]c(=S)[nH]c2=O)Oc2ccc3ccccc3c21`, the TGI in assay [1], in assay [10], in [9], in [2], in assay [3] and in assay [4] was over 100 µM throughout. Besides, the TGI is over 100 µM in assay [5], over 100 µM in [6], over 100 µM in [7] and 41.4 µM in assay [8].

In the case of `Cc1ccc(Nc2nc(N)nc3c2ncn3C2OC(CO)C(O)C2O)cc1` (stereo not drawn), the TGI in assay [10], in [9], in [2], in assay [3], in assay [4] and in [5] was over 100 µM throughout. Moreover, the TGI in [6], in assay [7] and in assay [8] was over 100 µM throughout.

As to `c1cn2cc(-c3ccc4ncn(C5CCCCC5)c4c3)nc(-c3ccc4c(c3)ncn4C3CCCCC3)c2n1`, the GI50 in assay [1] is 1.59 µM; in [9], 1.8 µM; in [4], 1.49 µM; in [5], 2.11 µM; in assay [8] it was 1.49 µM. For the same compound, the TGI in assay [1] stood at 3.15 µM; in assay [9], 4.58 µM; in assay [4], 2.85 µM; in assay [5], 3.75 µM; in [8] it was 2.83 µM.

`COC1CC(OC2CCC3(C)C(CCC45CCC(C6=CC(=O)OC6)C(C)(CCC43)C5=O)C2)OC(C)C1O` (stereo not drawn): the TGI in assay [1] was 44 µM; in assay [10], 29.3 µM; in [9], over 100 µM; in [2] it was over 100 µM; in assay [3], over 100 µM; in assay [4] it was 35.8 µM. In addition, the values for the TGI in [6], in assay [7] and in [8] were over 100 µM, over 100 µM and 41.9 µM, respectively.

Regarding `CCC(=O)NC(Nc1ccc(O)cc1)(C(F)(F)F)C(F)(F)F`, the TGI in assay [1], in assay [10], in [9], in assay [2], in [4] and in assay [5] was over 100 µM throughout. The TGI in [6] and in [7] was over 100 µM in each case.

Turning to `CC12CCC(C(=O)N3CC=CCC3)(OC1=O)C2(C)C` (stereo not drawn), the TGI in assay [1], in assay [9], in assay [2], in assay [3], in assay [4] and in assay [5] was over 100 µM in each case. Also, the TGI in [7] and in assay [8] was over 100 µM in each case.

On to `C/C(=N/O)c1cccc(Nc2nc3ccc(Cl)cc3c3[nH]c4ccccc4c23)c1`, for which the TGI in [1] is 5.15 µM; in assay [10], 4.41 µM; in [9] it was 2.75 µM; in [2], 3.94 µM; in assay [3], 11.5 µM; in assay [4] it was 8.86 µM. Further, the TGI was 6.51 µM in assay [6], 5.73 µM in assay [7] and 2.56 µM in assay [8].

Take `CC1=CC(=O)C(=O)C2=C1OC1(C2)C(C)CCC2C3(C)CCC(O)C(C)(C)C3CCC21C` (stereo not drawn): the TGI in assay [1] stood at 63 µM; in [2] it was 36.1 µM; in assay [3], 34.2 µM; in assay [4], 34.4 µM; in assay [5] it was 35.3 µM; in [6], 34.5 µM. Besides, the TGI in assay [7] was 35.8 µM; in assay [8] it was 33.4 µM.

Regarding `O=C(O)C1Cc2c([nH]c3ccccc23)C=N1` (stereo not drawn), the TGI in assay [1], in [9], in assay [2], in assay [3], in assay [4] and in assay [5] was over 100 µM in each case. Further, the TGI in assay [7] and in assay [8] was over 100 µM each time.

`N=C(N)c1csc([C@@H]2O[C@H](CO)[C@@H](O)[C@H]2O)n1`: the TGI in assay [1], in [3], in [4], in assay [5], in assay [6] and in [7] was over 100 µM throughout. The same compound had a TGI in assay [8] of over 100 µM.

For the compound `NC(=O)C(c1ccccc1)N1OC2C(=O)N(c3cccc4ccccc34)C(=O)C2C1c1c2ccccc2c(Cl)c2ccccc12` (stereo not drawn), the TGI was found to be 25.1 µM in [1]; 46.6 µM in assay [10]; 11.2 µM in assay [9]; 13.8 µM in assay [2]; 39.8 µM in assay [3]; 20.3 µM in assay [4]. Besides, the TGI in assay [5] was determined as 35.7 µM; in [6], 22.8 µM; in assay [7], 13.6 µM; in [8], 11.2 µM.

As for `C(=NCc1ccccc1)c1ccccc1-c1ccccc1C=NCc1ccccc1`, the TGI in [1], in assay [10], in [9], in assay [2], in [3] and in assay [4] was over 10 µM throughout. Also, the TGI in [5], in assay [6], in assay [7] and in assay [8] was over 10 µM throughout.

On to `COc1cc(C2=C(C#N)C(N)OC3=C2COc2ccccc23)cc(OC)c1OC` (stereo not drawn), for which the TGI in [1] is 89.1 µM; in assay [10], 25.8 µM; in assay [9], over 100 µM; in [2] it was over 100 µM; in [3], over 100 µM; in [4] it was 12.7 µM. In addition, the TGI in [5] was 32.3 µM; in assay [6], 30.2 µM; in assay [7], over 100 µM; in assay [8], over 100 µM.
